These results are taken from ChEMBL document CHEMBL2303647, “Data associated with the publication PLoS ONE, 8(3), e57888, (2013) PMID: 23505445. Compounds: GSK PKIS; Assays: NIH NCATS”.

Test [1] has as its target T1, Coelenterazine h 2-monooxygenase (Renilla reniformis, UniProt P27652).
T1 sequence (P27652 whole entry): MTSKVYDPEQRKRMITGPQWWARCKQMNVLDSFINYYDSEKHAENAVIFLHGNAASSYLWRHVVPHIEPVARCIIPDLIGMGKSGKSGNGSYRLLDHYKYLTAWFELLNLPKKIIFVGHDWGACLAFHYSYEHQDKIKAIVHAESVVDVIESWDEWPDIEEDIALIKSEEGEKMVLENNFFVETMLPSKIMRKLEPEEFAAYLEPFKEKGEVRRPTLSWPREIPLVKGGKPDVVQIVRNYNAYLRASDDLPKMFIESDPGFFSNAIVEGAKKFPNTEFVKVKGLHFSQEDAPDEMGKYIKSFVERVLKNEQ
Description: GSK_PKIS: Inhibition of Sea Pansy Luciferase (Data from PubChem: AID 652015) [NIH NCATS]

Test [2] concerns the target Luciferin 4-monooxygenase (Photinus pyralis, UniProt P08659).
Description: GSK_PKIS: Inhibition of Firefly Luciferase (Data from PubChem: AID 652016) [NIH NCATS]

Luciferin 4-monooxygenase, sequence (P08659 whole entry): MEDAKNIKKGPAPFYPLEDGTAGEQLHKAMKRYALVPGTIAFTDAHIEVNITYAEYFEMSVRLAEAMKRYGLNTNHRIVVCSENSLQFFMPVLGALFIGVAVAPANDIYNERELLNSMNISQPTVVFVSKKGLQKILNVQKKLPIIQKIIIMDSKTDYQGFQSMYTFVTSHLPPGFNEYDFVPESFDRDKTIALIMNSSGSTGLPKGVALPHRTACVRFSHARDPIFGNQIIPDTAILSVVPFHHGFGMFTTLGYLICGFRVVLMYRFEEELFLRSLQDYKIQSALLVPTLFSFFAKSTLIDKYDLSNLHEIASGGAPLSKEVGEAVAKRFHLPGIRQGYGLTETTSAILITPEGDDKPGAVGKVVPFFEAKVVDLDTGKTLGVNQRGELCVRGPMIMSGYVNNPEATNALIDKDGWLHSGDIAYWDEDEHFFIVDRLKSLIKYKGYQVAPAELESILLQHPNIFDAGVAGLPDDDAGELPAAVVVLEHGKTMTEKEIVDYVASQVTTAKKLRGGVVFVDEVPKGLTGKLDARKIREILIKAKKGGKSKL

As usually defined, the AC50 is the concentration giving half of the maximal activity seen. For the compound `COC(=O)Nc1nc2ccc(Sc3ccc(NC(=O)Nc4cc(C(F)(F)F)ccc4F)cc3)cc2[nH]1.O=S(=O)(O)O` [GW607049C], the AC50 was 0.0006 µM in test [1] (read-out: AC50) and “Phenotype: Inactive; Curve_Description: None” in test [2].

Regarding `Cc1nnc(-c2ccc(C)c(-c3ccc(C(=O)Nc4cccc(C#N)c4)cc3)c2)o1` [GW607117X], the AC50 result in test [1] is “Phenotype: Inactive; Curve_Description: None”; in test [2] (read-out: AC50), 41.1 µM.

For `COc1cc(Nc2nccc(Nc3ccc4c(C)n[nH]c4c3)n2)cc(OC)c1OC` [GW612286X], the half-maximal activity concentration (AC50) in test [1] (read-out: AC50) is 36.6 µM; in test [2] (read-out: AC50), 18.3 µM.

Take `O=S(=O)(CCOCc1ccc(-c2ccc3ncnc(Nc4ccc(OCc5cccc(F)c5)c(Cl)c4)c3c2)o1)c1ccccc1` [GW615311X]: the AC50 was 46.1 µM in test [1] (read-out: AC50) and “Phenotype: Inactive; Curve_Description: None” in test [2].

For the compound `CS(=O)(=O)CCN(CC#N)Cc1ccc(-c2ccc3ncnc(Nc4ccc(OCc5cccc(F)c5)c(Cl)c4)c3c2)o1` [GW616030X], the AC50 result in test [1] and in test [2] was “Phenotype: Inactive; Curve_Description: None” each time.

In the case of `CN(C)CCCNc1nccc(-c2c(-c3ccc(F)cc3)nn3cc(C(F)(F)F)ccc23)n1.CS(=O)(=O)O` [GW618013A], the AC50 entry was “Phenotype: Inactive; Curve_Description: None” in test [1] and 41.1 µM in test [2] (read-out: AC50).

Turning to `N#Cc1c(NC(=O)c2cccc3ccccc23)sc2c1CCCC2` [GW620972X], the AC50 entry in test [1] was “Phenotype: Inactive; Curve_Description: None”; in test [2] (read-out: AC50) it was 18.3 µM.

For `CCS(=O)(=O)c1ccc(OC)c(Nc2ncc(-c3cccc(C(C)=O)c3)o2)c1` [GW621431X], the concentration at half-maximal activity (AC50) result in test [1] and in test [2] was “Phenotype: Inactive; Curve_Description: None” in each case.

In the case of `CCCN(CCS(C)(=O)=O)Cc1ccc(-c2ccc3ncnc(Nc4ccc(OCc5cccc(F)c5)c(Cl)c4)c3c2)o1.Cl` [GW621823A], the AC50 entry was “Phenotype: Inactive; Curve_Description: None” in test [1] and 20.6 µM in test [2] (read-out: AC50).

Take `CCS(=O)(=O)c1ccc(OC)c(Nc2ncc(-c3cccc(F)c3)o2)c1` [GW621970X]: the AC50 entry in test [1] and in test [2] was “Phenotype: Inactive; Curve_Description: None” each time.

With `CCS(=O)(=O)c1ccc(OC)c(Nc2ncc(-c3ccccc3Cl)o2)c1` [GW622055X], the AC50 was 18.3 µM in test [1] (read-out: AC50) and “Phenotype: Inactive; Curve_Description: None” in test [2].

Take `COc1cc(Nc2ncc(-c3ccccc3)o2)cc(OC)c1OC` [GW627512B]: the AC50 entry in test [1] and in test [2] was “Phenotype: Inactive; Curve_Description: None” each time.

As for `Cl.N#Cc1cccc(Nc2ncc(-c3ccccc3)o2)c1` [GW627834A], the AC50 result in test [1] is “Phenotype: Inactive; Curve_Description: None”; in test [2] (read-out: AC50), 1.03 µM.

As for `COc1cc(Nc2ncc(-c3ccccc3)o2)cc(OC)c1` [GW631581B], the values for the half-maximal activity concentration (AC50) result in test [1] and in test [2] (read-out: AC50) were “Phenotype: Inactive; Curve_Description: None” and 6.51 µM, respectively.

Take `Cc1cccc(Nc2ncc(-c3ccccc3)o2)c1` [GW632046X]: the AC50 entry was “Phenotype: Inactive; Curve_Description: None” in test [1] and 0.58 µM in test [2] (read-out: AC50).

As for `COc1ccc(COc2ccc(Cc3cnc(N)nc3N)cc2OC)cc1` [GW632580X], the concentration at half-maximal activity (AC50) entry in test [1] and in test [2] was “Phenotype: Inactive; Curve_Description: None” throughout.

`Cl.O=S(=O)(CCNCc1ccc(-c2ccc3ncnc(Nc4ccc(OCc5cccc(F)c5)c(Cl)c4)c3c2)o1)c1ccccc1` [GW633459A]: the AC50 entry in test [1] is “Phenotype: Inactive; Curve_Description: None”; in test [2] (read-out: AC50) it was 29.1 µM.

For `Cl.c1ccc(Oc2ccc(Nc3ncc(-c4ccccc4)o3)cc2)cc1` [GW641155A], the half-maximal activity concentration (AC50) entry in test [1] and in test [2] was “Phenotype: Inactive; Curve_Description: None” each time.

On to `COc1ccc(-c2coc3ncnc(N)c23)cc1` [GW642125X], for which the concentration at half-maximal activity (AC50) in test [1] (read-out: AC50) was 20.6 µM; in test [2], “Phenotype: Inactive; Curve_Description: None”.

Turning to `COc1ccc(-c2cc3c(N)ncnc3o2)cc1` [GW642138X], the values for the concentration at half-maximal activity (AC50) result in test [1] and in test [2] (read-out: AC50) were “Phenotype: Inactive; Curve_Description: None” and 6.51 µM, respectively.

Regarding `COc1cc(C=NNc2ncnc3c2cnn3Cc2ccccc2)ccc1O` [GW643971X], the concentration at half-maximal activity (AC50) result is “Phenotype: Activator; Curve_Description: None” in test [1] and 29.1 µM in test [2] (read-out: AC50).

As for `COc1cc(/C=N/Nc2ncnc3c2cnn3C(C)C)ccc1O` [GW644007X], the AC50 entry in test [1] was “Phenotype: Inactive; Curve_Description: None”; in test [2] (read-out: AC50) it was 5.8 µM.

On to `Fc1cccc(COc2ccc(Nc3ncncc3C#Cc3ccccc3)cc2Cl)c1` [GW651576X], for which the half-maximal activity concentration (AC50) entry in test [1] and in test [2] was “Phenotype: Inactive; Curve_Description: None” each time.

As for `CCS(=O)(=O)c1ccc(OC)c(Nc2nccc(N(C)c3ccc4c(C)n[nH]c4c3)n2)c1.Cl` [GW654652C], the AC50 in test [1] (read-out: AC50) is 32.6 µM; in test [2], “Phenotype: Inactive; Curve_Description: None”.

In the case of `COC(=O)Nc1nc2cc(Oc3cccc(NC(=O)Nc4cc(C(F)(F)F)ccc4F)c3)ccc2[nH]1.Cl` [GW659386A], the figures for the AC50 result in test [1] and in test [2] (read-out: AC50) were “Phenotype: Inactive; Curve_Description: None” and 16.3 µM, respectively.

Regarding `Nc1ccc(C#Cc2cncnc2Nc2ccc(OCc3cccc(F)c3)c(Cl)c2)cc1` [GW659893X], the AC50 result in test [1] was “Phenotype: Inactive; Curve_Description: None”; in test [2] (read-out: AC50) it was 20.6 µM.

With `CCc1cccc(NC(=O)Nc2ccc(Oc3ccc4nc(NC(=O)OC)[nH]c4c3)cc2)c1` [GW673715X], the AC50 entry in test [1] is “Phenotype: Inactive; Curve_Description: None”; in test [2] (read-out: AC50) it was 32.6 µM.

Consider `CCS(=O)(=O)c1ccc(OC)c(Nc2ncc(-c3cccc(-c4ccccc4F)c3)o2)c1` [GW678313X], for which the concentration at half-maximal activity (AC50) entry in test [1] and in test [2] was “Phenotype: Inactive; Curve_Description: None” in each case.

With `COc1ccc(-c2cc(-c3c[nH]nc3-c3ccccn3)ccn2)cc1` [GW679410X], the figures for the AC50 result in test [1] and in test [2] (read-out: AC50) were “Phenotype: Inactive; Curve_Description: None” and 16.3 µM, respectively.

Consider `C#Cc1cccc(Nc2ncnc3ccc(OCCCCNCCS(C)(=O)=O)cc23)c1` [GW680191X], for which the results for the AC50 in test [1] (read-out: AC50) and in test [2] were 29.1 µM and “Phenotype: Inactive; Curve_Description: None”, respectively.

Consider `COC(=O)Nc1nc2ccc(S(=O)(=O)c3ccc(NC(=O)Nc4cc(C(F)(F)F)ccc4F)cc3)cc2[nH]1.Cl` [GW680908A], for which the half-maximal activity concentration (AC50) entry in test [1] and in test [2] was “Phenotype: Inactive; Curve_Description: None” in each case.

Consider `Fc1ccc(-c2cc(-c3c[nH]nc3-c3ccccn3)ccn2)cc1` [GW680975X], for which the AC50 entry in test [1] and in test [2] was “Phenotype: Inactive; Curve_Description: None” throughout.

With `CC(C)c1ccc(-c2cc(-c3c[nH]nc3-c3ccccn3)ccn2)cc1` [GW682841X], the concentration at half-maximal activity (AC50) in test [1] (read-out: AC50) is 1.46 µM; in test [2], “Phenotype: Activator; Curve_Description: None”.

Turning to `FC(F)(F)CNc1nccc(-c2cnn3ncccc23)n1` [GW683003X], the half-maximal activity concentration (AC50) entry was “Phenotype: Inactive; Curve_Description: None” in test [1] and “Phenotype: Activator; Curve_Description: None” in test [2].

Take `c1cnn2ncc(-c3ccnc(NCCCN4CCOCC4)n3)c2c1` [GW683109X]: the AC50 entry in test [1] was “Phenotype: Inactive; Curve_Description: None”; in test [2] (read-out: AC50), 41.1 µM.

For the compound `Cl.O=C(Nc1ccc(Oc2ccc3[nH]c(NC(=O)c4ccco4)nc3c2)cc1)Nc1cc(C(F)(F)F)ccc1F` [GW683134A], the figures for the concentration at half-maximal activity (AC50) entry in test [1] and in test [2] (read-out: AC50) were “Phenotype: Inactive; Curve_Description: None” and 20.6 µM, respectively.

`CCc1nn2ncccc2c1-c1ccnc(NC2CC2)n1` [GW683768X]: the concentration at half-maximal activity (AC50) result in test [1] and in test [2] was “Phenotype: Inactive; Curve_Description: None” in each case.

For `Fc1cccc(COc2ccc(Nc3ncnc4sc(-c5cccs5)cc34)cc2Cl)c1` [GW684626B], the AC50 result in test [1] and in test [2] was “Phenotype: Inactive; Curve_Description: None” each time.

Consider `Nc1nc(-c2ccccn2)c(-c2ccc3ncccc3n2)s1` [GW693481X], for which the figures for the half-maximal activity concentration (AC50) entry in test [1] and in test [2] (read-out: AC50) were “Phenotype: Inactive; Curve_Description: None” and 32.6 µM, respectively.

As for `Cl.Fc1cccc(COc2ccc(Nc3ncnc4cc(-c5ccc[nH]5)sc34)cc2Cl)c1` [GW693881A], the AC50 result in test [1] and in test [2] was “Phenotype: Inactive; Curve_Description: None” in each case.

For `COC(=O)Nc1nc2ccc(Oc3ccc(NC(=O)Nc4cc(C(F)(F)F)ccc4F)cc3)cc2s1.Cl` [GW693917A], the AC50 result is “Phenotype: Inactive; Curve_Description: None” in test [1] and 13 µM in test [2] (read-out: AC50).

As for `COC(=O)Nc1nc2cc(Oc3ccc(NC(=O)Nc4cccc(Br)c4)cc3)ccc2[nH]1.Cl` [GW694234A], the AC50 entry in test [1] and in test [2] was “Phenotype: Inactive; Curve_Description: None” each time.

`COC(=O)Nc1nc2cc(Oc3ccc(NC(=O)Nc4ccccc4)cc3)ccc2[nH]1.Cl` [GW694590A]: the AC50 entry in test [1] is “Phenotype: Inactive; Curve_Description: None”; in test [2] (read-out: AC50), 14.6 µM.

In the case of `c1ccc(-c2n[nH]cc2-c2ccnc(-c3ccc(OCCN4CCOCC4)cc3)c2)nc1` [GW695874X], the concentration at half-maximal activity (AC50) entry in test [1] and in test [2] was “Phenotype: Inactive; Curve_Description: None” throughout.
